What was measured:
[1] = tested on: O-GlcNAc levels in COS-7 cells; experiment: Western blot of O-GlcNAc levels (CTD110.6) in treated COS-7 cells; format: cell-based, African green monkey; conditions: for effect on O-GlcNAc levels at single dose / extent of decrease of O-GlcNAc levels relative to parent compound 9: 50 μM
Description: Cell culture: Cells were grown in an incubator at 37° C. and 5% CO2 atmosphere. Media and serum were purchased from Invitrogen. COS-7 cells were cultured in Dulbecco's modified Eagle's medium (DMEM) with 5% fetal bovine serum (FBS), and were typically 80-100% confluent prior to experimentation. HepG2, SK-N-SH, and EMEG32^−/− cells were cultured in Dulbecco's modified Eagle's medium (DMEM) with 5% fetal bovine serum (FBS), CHO cells in DMEMF-12 with 5% FBS and PC12 cells in DMEM with 5% FBS and 5% horse serum. Prior to experimentation, PC12 cells were plated at a density of 3-4×10^5 cells10 cm plate, which had been pre-treated with 5 μgcm^2 rat tail collagen (BD Biosciences). Cells were differentiated in DMEM containing 1% horse serum, in the presence of 2.5S mouse nerve growth factor (Chemicon) at a final concentration of 25 ng mL^−1, for 4-5 days prior to treatment. Other cell lines were 80-100% confluent prior to treatment. Following treatment with (Ac-)5SGlcNAc, using various conditions, cells were washed gently with PBS, lysed in SDS loading buffer and boiled for 10 minutes. Mouse hybridoma cells (obtained from the Developmental Studies Hybridoma Bank; antibody E7 for (:1-tubulin) were cultured in RPMI40 with 10% FBS. Prior to treatment with Ac-5SGlcNAc, hybridoma cells were cultured for 2 days in RPMI40 with 5% FBS, and during treatment in RPMI40 with no serum. Cells were collected, centrifuged (800 x g, 5 min) and the supernatant removed. Cells were washed with PBS, centrifuged, the pellet resuspended in SDS loading buffer and boiled. The supernatant after centrifugation, which contained the IgG antibody produced by the cells, was used for immunoprecipitation (see below for details).
Westernlectin blots: Samples were run on 10% SDS polyacrylamide gels and transferred onto nitrocellulose membranes (Biorad). Membranes were blocked for 1 h in PBS containing 0.1% Tween-20 (PBS-T) containing 1% (unless otherwise stated) bovine serum albumin (BSA), and probed with the appropriate primary antibody or lectin in 1% BSA in PBS-T overnight at 4° C. Blots were washed for 1 hr with PBS-T, and blocked for a further 30 min with 1% BSA in PBS-T at room temperature. They were then probed with the appropriate horseradish peroxidise (HRP)-conjugated secondary antibodyprobe in 1% BSA in PBS-T at room temperature for 1 h, followed by washing in PBS-T for 1 h. Blots were developed with SuperSignal West Pico Chemiluminescent Substrate (Pierce) and exposed to CL-XPosure film (Pierce). Densitometry was performed using ImageQuant 5.2 (Molecular Dynamics), and fits to the data were made using GRAFIT^41.
Antibodieslectins: O-GlcNAc levels were assessed primarily using CTD110.6 (Covance), but RL2 (Abcam) and HGAC85 (Abcam) were also tested. Actin was probed using JLA20 (Developmental Studies Hybridoma Bank). OGA levels were assessed using a polyclonal anti-OGA antibody which was a kind gift from Dr. Gerald Hart and OGT levels using H-300 (Santa Cruz Biotechnology). nup62 was probed using mAb 414 (Covance). Secondary antibodies employed (HRP-conjugated goat anti-mouse IgM, goat anti-mouse IgG, goat anti-chicken IgY and goat anti-rabbit IgG) were obtained from Santa Cruz Biotechnology. Biotinylated-ConA, PHA-L, SNA and MAA were purchased from EY Laboratories, and biotinylated-GNA from Vector Laboratories. HRP-conjugated streptavidin (Pierce) was used as a probe for the biotinylated lectins.
Analogues (9, 10, 17-41) were tested in COS-7 cells, dosed at a final concentration of 50 μM in DMSO for 24 h. Following treatment, cells were washed with PBS, harvested into SDS-PAGE loading buffer and analyzed by western blot using standard procedures; blots were probed with the anti-O-GlcNAc antibody (CTD 110.6).

OGA = molecular target: T1, OGA (Homo sapiens, UniProt O60502); experiment: OGA kinetics, Michaelis-Menten hydrolysis of pMP glycosides; format: biochemical
T1 construct: made in house
T1 sequence (O60502 1-916): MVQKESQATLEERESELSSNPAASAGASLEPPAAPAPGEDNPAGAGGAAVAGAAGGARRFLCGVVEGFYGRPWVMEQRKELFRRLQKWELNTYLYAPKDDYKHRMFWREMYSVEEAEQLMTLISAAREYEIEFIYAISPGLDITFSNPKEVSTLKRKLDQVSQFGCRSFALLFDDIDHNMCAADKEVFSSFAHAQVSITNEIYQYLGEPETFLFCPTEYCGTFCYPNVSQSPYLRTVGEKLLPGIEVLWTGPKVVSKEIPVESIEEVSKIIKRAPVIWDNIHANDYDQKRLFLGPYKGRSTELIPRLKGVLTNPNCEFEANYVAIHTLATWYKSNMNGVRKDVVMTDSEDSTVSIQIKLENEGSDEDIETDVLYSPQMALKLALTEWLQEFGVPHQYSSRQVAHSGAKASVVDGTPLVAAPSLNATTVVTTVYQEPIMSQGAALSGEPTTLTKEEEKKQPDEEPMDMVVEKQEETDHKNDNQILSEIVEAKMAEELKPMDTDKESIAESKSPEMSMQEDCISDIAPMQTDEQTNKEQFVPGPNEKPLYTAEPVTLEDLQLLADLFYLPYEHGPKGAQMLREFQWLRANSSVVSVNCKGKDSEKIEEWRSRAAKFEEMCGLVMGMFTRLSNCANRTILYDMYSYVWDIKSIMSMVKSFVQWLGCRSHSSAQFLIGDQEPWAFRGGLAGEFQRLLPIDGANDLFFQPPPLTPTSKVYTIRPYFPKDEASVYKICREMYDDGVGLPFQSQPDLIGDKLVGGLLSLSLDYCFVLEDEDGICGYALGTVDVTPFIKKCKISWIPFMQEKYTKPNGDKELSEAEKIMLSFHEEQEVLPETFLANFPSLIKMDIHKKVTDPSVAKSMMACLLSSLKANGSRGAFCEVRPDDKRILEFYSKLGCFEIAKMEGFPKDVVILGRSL
Description: OGA kinetics: Synthesis and characterization of para-methoxyphenyl-5SGlcNAc is described in Example II. Kinetics were performed at 37° C. in PBS, pH 7.4 in a total volume of […]. Substrate concentrations of 25 μM to 1.5 mM were used for pMP-GlcNAc and 25 to 800 μM for pMP-5SGlcNAc. OGA (which was over-expressed and purified as described in Ref. ^42) was used at a concentration of 1 μM for pMP-GlcNAc and 3.6 μM for pMP-5SGlcNAc. Rates were monitored at a wavelength of 296 nm over the course of 10-20 min. Data were fit to the Michaelis-Menten equation in GRAFIT^41 and the kcat and KM values determined.

Structure (SMILES) | effect on O-GlcNAc levels at single dose ([1]; 24 h) | further results
CC(=O)OCC1SC(OC(C)=O)C(NC(=O)C(C)C)C(OC(C)=O)C1OC(C)=O [Compound 21, N-(i-butyryl)-1,3,4,6-tetra-O-acetyl-a-D-5-thio-glucosamine] | decreased O-GlcNAc levels in cells | 
CCCCCC(=O)NC1C(OC(C)=O)SC(COC(C)=O)C(OC(C)=O)C1OC(C)=O [Compound 27, N-hexonoyl-1,3,4,6-tetra-O-acetyl-a-D-5-thio-glucosamine] | decreased O-GlcNAc levels in cells | extent of decrease of O-GlcNAc levels relative to parent compound 9 ([1]; 24 h): comparable extent to the parent compound
COc1ccc(O[C@@H]2O[C@H](CO)[C@@H](O)[C@H](O)[C@H]2NC(C)=O)cc1 [pMP-GlcNAc, para-methoxyphenyl-GlcNAc, reference compound] |  | Km (OGA; 37° C.): 350 µM; kcat for OGA hydrolysis (OGA; 37° C.): 14.3 nmol/s/mg; Vmax/E0KM for OGA hydrolysis (OGA; human OGA): 40.7 μmol s^−1 mg^−1 M^−1
CCCC(=O)NC1C(OC(C)=O)SC(COC(C)=O)C(OC(C)=O)C1OC(C)=O [Compound 19, N-(n-butyryl)-1,3,4,6-tetra-O-acetyl-a-D-5-thio-glucosamine] | decreased O-GlcNAc levels in cells | 
CCC[C@H](C)C(=O)N[C@@H]1[C@@H](O)[C@H](O)[C@@H](CO)S[C@@H]1O [Compound 38, N-[(S)-2-methylvaleryl]-a-D-5-thio-glucosamine] | decreased O-GlcNAc levels in cells | extent of decrease of O-GlcNAc levels relative to parent compound 9 ([1]; 24 h): comparable extent to the parent compound
CC(=O)OCC1SC(OC(C)=O)C(NC(=O)Cc2cccc3ccccc23)C(OC(C)=O)C1OC(C)=O [Compound 35, N-(1-naphthylacetyl)-1,3,4,6-tetra-O-acetyl-α-D-5-thio-glucosamine] | decreased O-GlcNAc levels in cells | 
CC(=O)OCC1SC(OC(C)=O)C(NC(=O)CC2CCCCC2)C(OC(C)=O)C1OC(C)=O [Compound 33, N-(2-Cyclohexylacetyl)-1,3,4,6-tetra-O-acetyl-a-D-5-thio-glucosamine] | decreased O-GlcNAc levels in cells | 
CC(=O)OC[C@H]1S[C@H](OC(C)=O)[C@H](N)[C@@H](OC(C)=O)[C@@H]1OC(C)=O.O=S(=O)(O)O [Compound 31′, 1,3,4,6-tetra-O-acetyl-a-D-5-thio-glucosamine sulphuric acid salt] | decreased O-GlcNAc levels in cells | 
O=C(Cc1cccc2ccccc12)NC1C(O)SC(CO)C(O)C1O [Compound 36, N-(1-Naphthylacetyl)-α-D-5-thio-glucosamine] | decreased O-GlcNAc levels in cells | 
CCCCC(=O)NC1C(OC(C)=O)SC(COC(C)=O)C(OC(C)=O)C1OC(C)=O [Compound 23, N-(n-valeryl)-1,3,4,6-tetra-O-acetyl-α-D-5-thio-glucosamine] | decreased O-GlcNAc levels in cells | 
COc1ccc(O[C@H]2S[C@H](CO)[C@@H](O)[C@H](O)[C@H]2NC(C)=O)cc1 [Compound 14, para-Methoxyphenyl 2-acetamido-2-deoxy-5-thio-α-D-glucopyranoside] |  | kcat for OGA hydrolysis (OGA; 37° C.): 0.28 nmol s^−1 me; Vmax/E0KM for OGA hydrolysis (OGA; human OGA): 8.1 μmol s^−1 mg^−1 M^−1; fold less efficiently processed by OGA than pMP-GlcNAc (OGA; human OGA): 5 fold
CC(=O)NC1C(O)SC(CO)C(O)C1O [Compound 10, N-acetyl-α-D-5-thio-glucosamine] |  | effect on O-GlcNAc levels, dose response ([1]; 24 hours): decreased O-GlcNAc levels in a dose-dependent fashion; EC50 ([1]; Chlorocebus sabaeus, 24 h, densitometry of western blot, read-out: EC50 for reduction of O-GlcNAc levels): 700 µM
O=C(CC1CCCCC1)NC1C(O)SC(CO)C(O)C1O [Compound 34, N-(2-cyclohexylacetyl)-a-D-5-thio-glucosamine] | decreased O-GlcNAc levels in cells | 
CCC(=O)NC1C(OC(C)=O)SC(COC(C)=O)C(OC(C)=O)C1OC(C)=O [Compound 17, N-proprionyl-1,3,4,6-tetra-O-acetyl-α-D-5-thio-glucosamine] | decreased O-GlcNAc levels in cells | 
CC[C@H](C)CC(=O)NC1C(OC(C)=O)SC(COC(C)=O)C(OC(C)=O)C1OC(C)=O (stereo partly drawn) [Compound 37, N-[(S)-methylvaleryl]-1,3,4,6-tetra-O-acetyl-α-D-5-thio-glucosamine] | decreased O-GlcNAc levels in cells | extent of decrease of O-GlcNAc levels relative to parent compound 9 ([1]; 24 h): comparable extent to the parent compound
CC(=O)OCC1SC(OC(C)=O)C(NC(=O)CC(C)C)C(OC(C)=O)C1OC(C)=O (stereo not drawn) [Compound 25] | decreased O-GlcNAc levels in cells | 
